# Literature values, collected in patent publication US20090018199A1, “Methods of Administering 3, 3, 14, 14 Tetramethyl Hexadecane 1, 16 Dioic Acid” (SYNDROME X LTD., priority 2003, published 2009).
# Tested on: patients
# Details: follow-up 15 years total, patients randomized to niacin
smiles,measurement,value
"O=C(O)c1cccnc1 [Niacin, niacin]",decrease in all-cause mortality,11%
